Test results from US4923892A, “Tricyclic aromatic compounds” (Burroughs Wellcome Co., priority 1985, dated 1990).

What was measured:
LD50 in rats = details: rat, in vivo
histamine = experiment: In vivo antihistaminic activity: protection of guinea pigs against histamine aerosol challenge; set-up: species or system Guinea pigs (Hartley, male)
[1] = test system: Compound 48/80 Induced Anaphylactoid Reaction; experiment: Anaphylactoid activity: inhibition of compound 48/80 induced anaphylactoid reaction in rats; assay type: in vivo, Wister rats; details: Rattus norvegicus, po, dosed 2 hours before compound 48/80 (2 mg/kg i.v.), propranolol 5 mg/kg i.p., at least 50 animals, read-out: ED50, dose providing 50% protection against death induced by compound 48/80
Procedure: Non-fasted, Wister rats (180-300 g) were dosed with the test compound (i.p. or p.o.) 2 hours before compound 48/80 challenge. One hour prior to challenge, 5 mg/kg i.p. of propranolol was administered. The anaphylactoid inducing agent, compound 48/80 which is well known in the art of pharmacology, was given intravenously at 2 mg/kg and the animals were monitored for symptoms of respiratory distress.
Data were analyzed by Probit determinations. The response was quantitated by determining the dose of test compound which protected 50% of the animals from death at a given time point.
Agents which block the effects of compound 48/80 are commonly classified as inhibitors of anaphylactic mediators or inhibitors of the release of anaphylic mediators.

| Compound | LD50 (LD50 in rats; ip) [mg/kg] | LD50 (LD50 in rats; po) [mg/kg] | ED50 (histamine; Cavia porcellus, po, 4 hr post dosing, guinea pigs, 0.25% histamine aerosol, at least 40 animals) [mg/kg] | antihistaminic activity in vivo (histamine; in words) | duration of antihistaminic activity (histamine; in words) | ED50 [1] [mg/kg] |
| --- | --- | --- | --- | --- | --- | --- |
| CN(C)CC/C=C1/c2ccccc2COc2ccc(C(=O)O)cc21 [Compound 1, (Z)-11-(3-(Dimethylamino)propylidene)-6,11-dihydrodibenz[b,e]oxepin-2-carboxylic acid] | ~210 | > 500 | 0.15 | extremely good antihistaminic activity in vivo | very long durations of antihistamic activity | 1.1 |
| Cc1ccc(/C(=C\CN2CCCC2)c2ccccn2)cc1 [Triprolidine] | – | – | – | – | – | > 30 |
| CN(C)CCC=C1c2ccccc2COc2ccccc21 [Doxepin, 11-(3-(dimethylamino)propylidene)-6,11-dihydrodibenz[b,e]oxepin] | – | – | – | – | – | 0.15 |
